Measurements as given in ChEMBL document CHEMBL1201862, “PubChem BioAssay data set” (2004).
Where “and” joins values, the source holds several entries; their conditions need not be identical. Equal values may be shown once.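 Each compound was tested at five concentrations against cells in 96-well plates for 48 hours. The concentration for 50% growth inhibition is given as GI50.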 Calls of active or inactive are those of the source. Cut-off read from the data, not from the text of the source: active = GI50 up to about 1.1 µM and inactive = higher.

What was measured:
Experiment in all cases: NCI anticancer screen, dose series, 48 h
KM-20L2 = system: KM-20L2
LXFL 529 = system: LXFL 529
DMS-273 = system: DMS-273
DMS-114 = system: DMS-114
XF498 = system: XF498
DLD-1 = system: DLD-1
SNB-78 = system: SNB-78
M19-MEL = system: M19-MEL
RXF 631 = system: RXF 631

Structure (SMILES)	GI50 (KM-20L2)	GI50 (LXFL 529)	GI50 (DMS-273)	GI50 (DMS-114)	GI50 (XF498)	GI50 (DLD-1)	GI50 (SNB-78)	GI50 (M19-MEL)	GI50 (RXF 631)
COc1cccc2c1C(=O)C=CC2=O	16.7 µM (inactive)	2.33 µM (inactive)	15 µM (inactive)	4.92 µM (inactive)	2.52 µM (inactive)	7.19 µM (inactive)	4.54 µM (inactive)	4.45 µM (inactive)	–
COc1cccc2c1C1=CC(=O)CCC1C(C)(C)O2 (configuration not stated)	> 100 µM (inactive)	> 100 µM (inactive)	> 100 µM (inactive)	27.8 µM (inactive)	–	57.5 µM (inactive)	> 100 µM (inactive)	> 100 µM (inactive)	> 100 µM (inactive)
CC(SC(=S)N1CCOCC1)c1cc2oc(=O)n(C)c2cc1Cl (configuration not stated)	> 100 µM (inactive)	57.4 µM (inactive)	> 100 µM (inactive)	84.5 µM (inactive)	> 100 µM (inactive)	> 100 µM (inactive)	> 100 µM (inactive)	> 100 µM (inactive)	–
CCOC(=O)C(C(O)c1ccc([N+](=O)[O-])cc1)P(=O)(OCC)OCC (configuration not stated)	> 100 µM (inactive)	> 100 µM (inactive)	> 100 µM (inactive)	–	> 100 µM (inactive)	> 100 µM (inactive)	–	77.6 µM (inactive)	> 100 µM (inactive)
O=C1/C(=C/c2ccc(Cl)cc2)CCC1CNc1ccc(Cl)cc1 (configuration not stated)	1.46 µM (inactive)	0.711 µM (active)	1.73 µM (inactive)	3.94 µM (inactive)	12.8 µM (inactive)	1.68 µM (inactive)	23.7 µM (inactive)	3.97 µM (inactive)	–
CC(C)N1CC2CC(CN(C(=O)c3ccc(Cl)cc3)C2)C1	> 100 µM (inactive)	> 100 µM (inactive)	> 100 µM (inactive)	> 100 µM (inactive)	> 100 µM (inactive)	–	–	> 100 µM (inactive)	> 100 µM (inactive)
O=c1oc2ccccc2[n+]([O-])c1-c1ccccc1	> 100 µM (inactive)	> 100 µM (inactive)	> 100 µM (inactive)	> 100 µM (inactive)	> 100 µM (inactive)	> 100 µM (inactive)	> 100 µM (inactive)	> 100 µM (inactive)	> 100 µM (inactive)
CN(CCN1C(=O)c2cc([N+](=O)[O-])cc3cc([N+](=O)[O-])cc(c23)C1=O)CCN1C(=O)c2cc([N+](=O)[O-])cc3cc([N+](=O)[O-])cc(c23)C1=O	1.1 µM (active)	0.211 µM (active)	0.391 µM (active)	0.605 µM (active)	0.211 µM (active)	0.448 µM (active)	0.255 µM (active)	0.369 µM (active)	–
Cc1cc(C)c(C(=O)C(C)C(c2ccccc2)c2ccc(Cl)cc2)c(C)c1 (configuration not stated)	–	63.5 µM (inactive)	–	> 100 µM (inactive) and 76.7 µM (inactive)	61.2 µM (inactive) and 33.3 µM (inactive)	> 100 µM (inactive)	–	43.9 µM (inactive) and 33.3 µM (inactive)	> 100 µM (inactive) and 95.1 µM (inactive)
CN(C)C=C1C(=O)N(C)C(=O)N(C)C1=O	> 100 µM (inactive)	> 100 µM (inactive)	> 100 µM (inactive)	> 100 µM (inactive)	> 100 µM (inactive)	> 100 µM (inactive)	> 100 µM (inactive)	> 100 µM (inactive)	–
C=C1C(=O)OC2C1C(OC(=O)/C(=C/C)COC(C)=O)CC1(CO1)C1C(OC(=O)/C(=C/C)CO)C=C(C)C21 (configuration not stated)	2.52 µM (inactive)	0.427 µM (active)	1.73 µM (inactive)	1.85 µM (inactive)	1.45 µM (inactive)	1.34 µM (inactive)	1.65 µM (inactive)	1.79 µM (inactive)	–
Cc1ccc(S(=O)(=O)c2ccc(C)cc2[N+](=O)[O-])cc1	> 100 µM (inactive)	44.3 µM (inactive)	> 100 µM (inactive)	22.4 µM (inactive)	–	> 100 µM (inactive)	64.4 µM (inactive)	47.1 µM (inactive)	–
C=C/C=C(\NC(=O)C(Cl)(Cl)Cl)[Si](C)(C)C	> 100 µM (inactive)	> 100 µM (inactive)	> 100 µM (inactive)	> 100 µM (inactive)	> 100 µM (inactive)	> 100 µM (inactive)	> 100 µM (inactive)	> 100 µM (inactive)	–
Cc1c2cc[n+](C)cc2c(C)c2c1[nH]c1ccc(O)c(OCC(F)(F)F)c12	7.13 µM (inactive)	0.807 µM (active)	1.58 µM (inactive)	0.938 µM (active)	1.2 µM (inactive)	2.34 µM (inactive)	1.16 µM (inactive)	2.42 µM (inactive)	2.78 µM (inactive)
CC[C@@]1(O)C(=O)OCc2c1cc1n(c2=O)Cc2cc3ccccc3nc2-1 [CAMPTOTHECIN]	0.0776 µM (active)	0.372 µM (active)	< 0.01 µM (active)	0.0206 µM (active)	0.0483 µM (active)	0.243 µM (active)	0.333 µM (active)	0.048 µM (active)	–
